# Columns and labels:
# Assay type in all cases: physicochemical
# [1] = Thermogravimetry-differential thermal analysis (TG-DTA); details: 10° C./min, nitrogen
# Protocol: The thermogravimetry-differential thermal analysis (TG-DTA) for Example 3-8, Example 3-9, Example 3-12, Example 3-13, Example 3-17, and Example 3-19 was performed under the following conditions. • Measurement apparatus: STA7200RV+AS-3T (manufactured by Hitachi High-Tech Science Corporation) • Measurement range: 30 to 350° C. • Heating rate: 10° C./min • Atmosphere: nitrogen • Measurement: The sample was weighed in an open aluminum pan and covered with a mesh to perform the measurement.
# [2] = Powder X-ray diffraction measurement at each relative humidity (influence of humidity on the crystal form); details: 35.0 °C
# Protocol: (§1) The powder X-ray diffraction measurement for Example 3-12 was performed under the following conditions to evaluate the crystal form at each relative humidity. The measurement was carried out at the time points between dropping the relative humidity to 0% and raising it to 90%: 0% (FIG. 21(A)), 10% (FIG. 21(B)), 20% (FIG. 21(C)), 50% (FIG. 21(D)), and 90% (FIG. 21(E)). • Measurement apparatus: SmartLab System, D/Tex Ultra detector, humidity generator HUM-SL (manufactured by Rigaku Corporation) • Radiation source: CuKα1 • Tube voltage: 45 kV • Tube current: 200 mA • Scanning range: 4 to 35° • Scanning speed: 5°/min • Sampling width: 0.02° • Humidity change conditions:
# as §1, with “3-13” for “3-12”, “24(A)), 30%” for “21(A)), 10%”, “24(B)),” for “21(B)), 20% (FIG. 21(C)),”, “24(C)),” for “21(D)),”, “24(D)).” for “21(E)).”, “conditions: […]” for “conditions:”
# [3] = Slurry conversion experiment (form A, form B and form K crystals mixed and shaken in mixed solvent); details: 25° C., 2000 rpm
# Protocol: The powder X-ray diffraction measurement for Example 3-2, Example 3-3, Example 3-4, Example 3-5, Example 3-6, Example 3-7, Example 3-9, Example 3-16, Example 3-17, Example 3-22, Example 5-1, Example 5-2, Example 5-3, Example 5-4, Example 5-5, Example 5-6, Example 5-7, Example 5-8, and Example 5-9 was performed under the following conditions. • Measurement apparatus: D8 Discover, 2D VANTEC-500 solid state detector (manufactured by Bruker) • Radiation source: CuKα • Tube voltage and tube current: 50 kV and 1000 μA • Measurement range: 5 to 31° • Exposure time: 40 seconds
# (§2) The form A crystal (3.0 mg), form B crystal (3.0 mg), and form K crystal (3.0 mg) of compound 1 were mixed, and a mixed solvent of acetone-heptane (1:1 (v/v), 0.030 mL) and one grain of glass bead were added. Using a shaker (BioShaker M⋅BR-022UP manufactured by TAITEC CORPORATION), the mixture was shaken at 25° C., 2000 rpm for 9 days, and then filtered and dried under reduced pressure to obtain a crystal (form B) of compound 1. […] It was confirmed that the form B crystal is a stable form in the mixed solvent of acetone-heptane (1:1 (v/v)).
# as §2, with “(3.1” for “(3.0”, “2-propanol-heptane” for “acetone-heptane”
# as §2, with “K crystal (3.1 mg) of” for “K crystal (3.0 mg) of”, “solvent of ethanol-heptane (1:1 (v/v),” for “solvent of acetone-heptane (1:1 (v/v),”, “solvent of ethanol-heptane (1:1 (v/v)).” for “solvent of acetone-heptane (1:1 (v/v)).”
# as §2, with “acetone-water” for “acetone-heptane”
# as §2, with “B crystal (3.1 mg), and” for “B crystal (3.0 mg), and”, “K crystal (3.1 mg) of” for “K crystal (3.0 mg) of”, “solvent of 2-propanol-water (1:1 (v/v),” for “solvent of acetone-heptane (1:1 (v/v),”, “solvent of 2-propanol-water (1:1 (v/v)).” for “solvent of acetone-heptane (1:1 (v/v)).”
# The form A crystal (3.1 mg), form B crystal (3.0 mg), and form K crystal (3.1 mg) of compound 1 were mixed, and a mixed solvent of ethanol-water (1:1 (v/v), 0.030 mL) and one grain of glass bead were added. Using a shaker (BioShaker M⋅BR-022UP manufactured by TAITEC CORPORATION), the mixture was shaken at 25° C., 2000 rpm for 9 days, and then filtered and dried under reduced pressure to obtain a crystal (form B) of compound 1. […] It was confirmed that the form B crystal is a stable form in the mixed solvent of ethanol-water (1:1 (v/v)). […]
weight reduction ([1]; crystal of Example 3-8 (from acetone/heptane)),weight reduction ([1]; crystal of Example 3-9 (from 2-propanol/heptane)),crystal form at a relative humidity of 0% [2],"stable form in slurry conversion ([3]; 2-propanol-heptane (1:1 (v/v)), 9 days)","stable form in slurry conversion ([3]; 2-propanol-water (1:1 (v/v)), 9 days)","stable form in slurry conversion ([3]; 2-propanol-water (1:4 (v/v)), 9 days)","stable form in slurry conversion ([3]; acetone-heptane (1:1 (v/v)), 9 days)","stable form in slurry conversion ([3]; acetone-water (1:1 (v/v)), 9 days)","stable form in slurry conversion ([3]; acetone-water (1:4 (v/v)), 9 days)","stable form in slurry conversion ([3]; ethanol-heptane (1:1 (v/v)), 9 days)","stable form in slurry conversion ([3]; ethanol-water (1:1 (v/v)), 9 days)","stable form in slurry conversion ([3]; ethanol-water (1:4 (v/v)), 7 days)",SMILES
3 wt %,2 wt %,transformed into the form J,,,,,,,,,,CCC[C@H]1C(=O)N[C@@H]([C@@H](C)CC)C(=O)N2CCC[C@H]2C(=O)N(C)[C@H]2C/C=C\CCN(C2=O)[C@@H](Cc2ccc(C(F)(F)F)cc2)C(=O)N(C)CC(=O)N[C@@H](CCc2ccc(C(F)(F)F)c(OC)c2)C(=O)N2C[C@H](OCC)C[C@H]2C(=O)N(C)C2(CCC2)C(=O)N(C)[C@@H](C2CCCC2)C(=O)N(C)[C@H](C(=O)N(C)C)CC(=O)N1C [form A]
,,transformed into the form Y,a stable form,a stable form,a stable form,a stable form,a stable form,a stable form,a stable form,a stable form,a stable form,CCC[C@H]1C(=O)N[C@@H]([C@@H](C)CC)C(=O)N2CCC[C@H]2C(=O)N(C)[C@H]2C/C=C\CCN(C2=O)[C@@H](Cc2ccc(C(F)(F)F)cc2)C(=O)N(C)CC(=O)N[C@@H](CCc2ccc(C(F)(F)F)c(OC)c2)C(=O)N2C[C@H](OCC)C[C@H]2C(=O)N(C)C2(CCC2)C(=O)N(C)[C@@H](C2CCCC2)C(=O)N(C)[C@H](C(=O)N(C)C)CC(=O)N1C [form B]

# From patent publication US20260337231A1, “METHOD FOR PRODUCING CYCLIC PEPTIDE COMPOUND” (CHUGAI SEIYAKU KABUSHIKI KAISHA, priority 2023, published 2026)
